Experimental data from US9889146B2, “Benzoxaborole compounds and uses thereof” (priority 2012, dated 2018).
≈ marks a conversion by molar mass, not a printed value. Read-outs that look alike come from different tables or passages of the source.

Columns and labels:
Type in all cases: cell-based
[1] = test system: Klebsiella spp. (WT); assay: microbe, parasite or virus in culture; details: Klebsiella spp. (WT)
[2] = test system: E. coli isolates from subject E. coli 1; assay: MIC in M9 minimal media of clinical isolates, subject E. coli 1; details: Escherichia coli, read-out: MIC in M9 Minimal Media
Procedure: The E. coli and P. mirabilis strains were cultured on Trypticase Soy Agar/5% blood plates (Becton Dickinson BBL), in cation adjusted Mueller-Hinton II Broth, or in M9 minimal salts (Becton Dickinson) broth containing 0.4% glucose and 200 uM MgSO4. L-Norvaline (Sigma-Aldrich) was prepared at a concentration of 6.4 mg/ml in […], in a final volume of approx 0.5 ml, and stored at −20° C. until required.
Minimum inhibitory concentrations (MICs) were determined using the CLSI (Clinical and Laboratory Standards Institute, formerly NCCLS) recommended broth microdilution methodology [NCCLS, 2003] using defined media.
Throughout this study E. coli and P. mirabilis strains were cultured on Trypticase Soy Agar/5% blood plates, on M9 salts/1.2% Bacto Agar plates, in Cation Adjusted Mueller-Hinton II Broth (CAMHB), or in M9 Minimal Salt Broth containing 0.4% glucose and 200 μM MgSO4. GSK2251052 and norvaline were prepared at a concentration of 6.4 mg/mL (free base) in 100% DMSO and 100% water respectively, aliquoted in 0.5 mL individual stocks, and stored at −20° C. until required.
Minimum inhibitory concentrations (MICs) were determined for each organism using the CLSI (Clinical and Laboratory Standards Institute) recommended broth microdilution methodology [CLSI, 2009].
Strains tested are detailed in Table 15. MICs for norvaline and GSK2251052 could only be determined for E. coli isolates from subject E. coli 1 (Table 16) as M9 Minimal Media could not sustain growth of E. coli isolates from subject E. coli 2 (isolates 2a-2o) or P. mirabilis isolates (isolates 3a-3c) from subject E. coli 3. […] This phenotype is consistent with a mutation in the editing site of LeuRS, which could also be responsible for the concomitant decrease in susceptibility to GSK2251052 observed in isolates from Days 2, 3 and 4 (Table 16).

[3] = test system: Morganella morganii (AmpC); assay: microbe, parasite or virus in culture; details: Morganella morganii
[4] = test system: P. aeruginosa ATCC 27853 wild type and mutants; assay: MIC, wild type and GSK2251052 resistant mutants; details: Pseudomonas aeruginosa
Outline: (§1)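 MICs were determined following CLSI M7-A7 recommendations for aerobic bacteria. Strains were E. coli ATCC 25922, K. pneumoniae ATCC 13883, P. aeruginosa ATCC 27853 and six to ten laboratory-selected GSK2251052-resistant colonies of each, carrying mutations in the LeuRS editing domain.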

[5] = test system: K. pneumoniae ATCC 13883 wild type and mutants; assay: MIC, wild type and GSK2251052 resistant mutants; details: Klebsiella pneumoniae
Outline: as §1

[6] = test system: E. coli ATCC 25922 wild type and mutants; assay: MIC, wild type and GSK2251052 resistant mutants; details: Escherichia coli
Outline: as §1

[7] = test system: E. coli (WT); assay: microbe, parasite or virus in culture; details: Escherichia coli, E. coli (WT)
[8] = test system: E. coli (ESBL); assay: microbe, parasite or virus in culture; details: Escherichia coli
[9] = test system: Proteus vulgaris (WT); assay: microbe, parasite or virus in culture; details: Proteus vulgaris (WT)
[10] = test system: Enterobacter cloacae (WT); assay: microbe, parasite or virus in culture
[11] = test system: Enterobacter cloacae (AmpC); assay: microbe, parasite or virus in culture; details: Enterobacter cloacae
[12] = test system: Enterobacteriaceae; assay: organism not typed; details: Enterobacteriaceae
[13] = GSK2251052 breakpoint, read-out: susceptibility category of MIC90
[14] = read-out: susceptibility category of MIC90

NC[C@H]1OB(O)c2c(OCCCO)cccc21 [GSK2251052, (S)-3-aminomethyl-7-(3-hydroxy-propoxy)-3h-benzo[c][1,2]oxaborol-1-ol]
MIC90 ([1]; 159 isolates, read-out: MIC90): 1 µg/mL (≈ 4.22 µM)
MIC90 [1, 13]: < 4 µg/mL
MIC ([2]; 24 h, Isolate 1a, Blood, Day 1): 1 µg/mL (≈ 4.22 µM)
MIC ([2]; 24 h, Isolate 1b, Urine, Day 1): 1 µg/mL (≈ 4.22 µM)
MIC ([2]; 48 h, Isolate 1c, Blood, Day 2): 32 µg/mL (≈ 135 µM)
MIC ([2]; 96 h, Isolate 1e, Blood, Day 4): 32 µg/mL (≈ 135 µM)
MIC ([2]; Isolate 1d, Blood, Day 3): 32 µg/mL (≈ 135 µM)
MIC90 [3]: 2 µg/mL (≈ 8.44 µM)
MIC90 [3, 14]: < 4 µg/mL
MIC ([4]; ATCC27853, P wt, leuRS mutation none, read-out: MIC): 4 µg/mL (≈ 16.9 µM)
MIC ([4]; ATCC27853, P. aeruginosa WT, read-out: GSK2251052 MIC): 4 µg/mL (≈ 16.9 µM)
MIC ([4]; ATCC27853, mutant P101, leuRS T256P): 128 µg/mL (≈ 540 µM)
MIC ([4]; ATCC27853, mutant P102, leuRS T256P (ditto mark)): 32 µg/mL (≈ 135 µM)
MIC ([4]; ATCC27853, mutant P103, leuRS T256P (ditto mark)): 64 µg/mL (≈ 270 µM)
MIC ([4]; ATCC27853, mutant P104, leuRS T256P (ditto mark)): 128 µg/mL (≈ 540 µM)
MIC ([4]; ATCC27853, mutant P105, leuRS T256P (ditto mark)): 128 µg/mL (≈ 540 µM)
MIC ([4]; ATCC27853, mutant P106, leuRS V342M): > 256 µg/mL
MIC ([4]; ATCC27853, mutant P107, leuRS V342M (ditto mark)): 128 µg/mL (≈ 540 µM)
MIC ([4]; ATCC27853, mutant P108, leuRS T252P): 128 µg/mL (≈ 540 µM)
MIC ([4]; ATCC27853, mutant P109, leuRS V342M): 128 µg/mL (≈ 540 µM)
MIC ([4]; ATCC27853, mutant P110, leuRS V342M (ditto mark)): > 256 µg/mL
MIC ([5]; ATCC13883, K wt, leuRS mutation none, read-out: MIC): 1 µg/mL (≈ 4.22 µM)
MIC ([5]; ATCC13883, K. pneumoniae WT, read-out: GSK2251052 MIC): 1 µg/mL (≈ 4.22 µM)
MIC ([5]; ATCC13883, mutant K104, leuRS D345Y): > 256 µg/mL
MIC ([5]; ATCC13883, mutant K105, leuRS G229R): > 256 µg/mL
MIC ([5]; ATCC13883, mutant K107, leuRS S227F): 256 µg/mL (≈ 1080 µM)
MIC ([5]; ATCC13883, mutant K108, leuRS T248P): > 256 µg/mL
MIC ([5]; ATCC13883, mutant K109, leuRS T248P (ditto mark)): > 256 µg/mL
MIC ([5]; ATCC13883, mutant K110, leuRS V338L): 256 µg/mL (≈ 1080 µM)
MIC ([6]; ATCC25922, E wt, leuRS mutation none, read-out: MIC): 1 µg/mL (≈ 4.22 µM)
MIC ([6]; ATCC25922, E. coli WT, read-out: GSK2251052 MIC): 1 µg/mL (≈ 4.22 µM)
MIC ([6]; ATCC25922, mutant E101, leuRS Y246H): 64 µg/mL (≈ 270 µM)
MIC ([6]; ATCC25922, mutant E102, leuRS D345G): 256 µg/mL (≈ 1080 µM)
MIC ([6]; ATCC25922, mutant E103, leuRS D345G (ditto mark)): 256 µg/mL (≈ 1080 µM)
MIC ([6]; ATCC25922, mutant E104, leuRS Y246H): 64 µg/mL (≈ 270 µM)
MIC ([6]; ATCC25922, mutant E105, leuRS D345G): 256 µg/mL (≈ 1080 µM)
MIC ([6]; ATCC25922, mutant E106, leuRS D345G): 256 µg/mL (≈ 1080 µM)
MIC ([6]; ATCC25922, mutant E107, leuRS G229S): > 256 µg/mL
MIC ([6]; ATCC25922, mutant E108, leuRS D345G): 256 µg/mL (≈ 1080 µM)
MIC ([6]; ATCC25922, mutant E109, leuRS D345G (ditto mark)): 256 µg/mL (≈ 1080 µM)
MIC ([6]; ATCC25922, mutant E110, leuRS Duplication D345 Y346): > 256 µg/mL
MIC90 ([7]; 214 isolates, read-out: MIC90): 1 µg/mL (≈ 4.22 µM)
MIC90 [7, 13]: < 4 µg/mL
MIC90 [8]: 1 µg/mL (≈ 4.22 µM)
MIC90 [8, 14]: < 4 µg/mL
MIC90 ([9]; 41 isolates, read-out: MIC90): 1 µg/mL (≈ 4.22 µM)
susceptibility category of MIC90 [9, 13]: < 4 µg/mL
MIC90 ([10]; 202 isolates, read-out: MIC90): 1 µg/mL (≈ 4.22 µM)
susceptibility category of MIC90 [10, 13]: < 4 µg/mL
MIC90 [11]: 0.5 µg/mL (≈ 2.11 µM)
MIC90 [11, 14]: < 4 µg/mL
MIC90 ([12]; 2029 isolates, read-out: MIC90): 1 µg/mL (≈ 4.22 µM)
susceptibility category of MIC90 [12, 13]: < 4 µg/mL
